ChEMBL document CHEMBL4330074, “Discovery of potent azaindazole leucine-rich repeat kinase 2 (LRRK2) inhibitors possessing a key intramolecular hydrogen bond - Part 2” (Bioorg Med Chem Lett, 2019)

Legend:
[1] = biological target: T1, Leucine-rich repeat serine/threonine-protein kinase 2 (Homo sapiens, UniProt Q5S007, G2019S); assay: Inhibition of recombinant human GST-tagged LRRK2 G2019S mutant catalytic domain (970 to 2527 residues) expressed in insect cells using RtGWWRFYTLRRARQGNTKQR as substrate measured after 180 mins in presence of [gamma33P]ATP by topcount method
T1 sequence (Q5S007 whole entry G2019S, the tested form may be a part): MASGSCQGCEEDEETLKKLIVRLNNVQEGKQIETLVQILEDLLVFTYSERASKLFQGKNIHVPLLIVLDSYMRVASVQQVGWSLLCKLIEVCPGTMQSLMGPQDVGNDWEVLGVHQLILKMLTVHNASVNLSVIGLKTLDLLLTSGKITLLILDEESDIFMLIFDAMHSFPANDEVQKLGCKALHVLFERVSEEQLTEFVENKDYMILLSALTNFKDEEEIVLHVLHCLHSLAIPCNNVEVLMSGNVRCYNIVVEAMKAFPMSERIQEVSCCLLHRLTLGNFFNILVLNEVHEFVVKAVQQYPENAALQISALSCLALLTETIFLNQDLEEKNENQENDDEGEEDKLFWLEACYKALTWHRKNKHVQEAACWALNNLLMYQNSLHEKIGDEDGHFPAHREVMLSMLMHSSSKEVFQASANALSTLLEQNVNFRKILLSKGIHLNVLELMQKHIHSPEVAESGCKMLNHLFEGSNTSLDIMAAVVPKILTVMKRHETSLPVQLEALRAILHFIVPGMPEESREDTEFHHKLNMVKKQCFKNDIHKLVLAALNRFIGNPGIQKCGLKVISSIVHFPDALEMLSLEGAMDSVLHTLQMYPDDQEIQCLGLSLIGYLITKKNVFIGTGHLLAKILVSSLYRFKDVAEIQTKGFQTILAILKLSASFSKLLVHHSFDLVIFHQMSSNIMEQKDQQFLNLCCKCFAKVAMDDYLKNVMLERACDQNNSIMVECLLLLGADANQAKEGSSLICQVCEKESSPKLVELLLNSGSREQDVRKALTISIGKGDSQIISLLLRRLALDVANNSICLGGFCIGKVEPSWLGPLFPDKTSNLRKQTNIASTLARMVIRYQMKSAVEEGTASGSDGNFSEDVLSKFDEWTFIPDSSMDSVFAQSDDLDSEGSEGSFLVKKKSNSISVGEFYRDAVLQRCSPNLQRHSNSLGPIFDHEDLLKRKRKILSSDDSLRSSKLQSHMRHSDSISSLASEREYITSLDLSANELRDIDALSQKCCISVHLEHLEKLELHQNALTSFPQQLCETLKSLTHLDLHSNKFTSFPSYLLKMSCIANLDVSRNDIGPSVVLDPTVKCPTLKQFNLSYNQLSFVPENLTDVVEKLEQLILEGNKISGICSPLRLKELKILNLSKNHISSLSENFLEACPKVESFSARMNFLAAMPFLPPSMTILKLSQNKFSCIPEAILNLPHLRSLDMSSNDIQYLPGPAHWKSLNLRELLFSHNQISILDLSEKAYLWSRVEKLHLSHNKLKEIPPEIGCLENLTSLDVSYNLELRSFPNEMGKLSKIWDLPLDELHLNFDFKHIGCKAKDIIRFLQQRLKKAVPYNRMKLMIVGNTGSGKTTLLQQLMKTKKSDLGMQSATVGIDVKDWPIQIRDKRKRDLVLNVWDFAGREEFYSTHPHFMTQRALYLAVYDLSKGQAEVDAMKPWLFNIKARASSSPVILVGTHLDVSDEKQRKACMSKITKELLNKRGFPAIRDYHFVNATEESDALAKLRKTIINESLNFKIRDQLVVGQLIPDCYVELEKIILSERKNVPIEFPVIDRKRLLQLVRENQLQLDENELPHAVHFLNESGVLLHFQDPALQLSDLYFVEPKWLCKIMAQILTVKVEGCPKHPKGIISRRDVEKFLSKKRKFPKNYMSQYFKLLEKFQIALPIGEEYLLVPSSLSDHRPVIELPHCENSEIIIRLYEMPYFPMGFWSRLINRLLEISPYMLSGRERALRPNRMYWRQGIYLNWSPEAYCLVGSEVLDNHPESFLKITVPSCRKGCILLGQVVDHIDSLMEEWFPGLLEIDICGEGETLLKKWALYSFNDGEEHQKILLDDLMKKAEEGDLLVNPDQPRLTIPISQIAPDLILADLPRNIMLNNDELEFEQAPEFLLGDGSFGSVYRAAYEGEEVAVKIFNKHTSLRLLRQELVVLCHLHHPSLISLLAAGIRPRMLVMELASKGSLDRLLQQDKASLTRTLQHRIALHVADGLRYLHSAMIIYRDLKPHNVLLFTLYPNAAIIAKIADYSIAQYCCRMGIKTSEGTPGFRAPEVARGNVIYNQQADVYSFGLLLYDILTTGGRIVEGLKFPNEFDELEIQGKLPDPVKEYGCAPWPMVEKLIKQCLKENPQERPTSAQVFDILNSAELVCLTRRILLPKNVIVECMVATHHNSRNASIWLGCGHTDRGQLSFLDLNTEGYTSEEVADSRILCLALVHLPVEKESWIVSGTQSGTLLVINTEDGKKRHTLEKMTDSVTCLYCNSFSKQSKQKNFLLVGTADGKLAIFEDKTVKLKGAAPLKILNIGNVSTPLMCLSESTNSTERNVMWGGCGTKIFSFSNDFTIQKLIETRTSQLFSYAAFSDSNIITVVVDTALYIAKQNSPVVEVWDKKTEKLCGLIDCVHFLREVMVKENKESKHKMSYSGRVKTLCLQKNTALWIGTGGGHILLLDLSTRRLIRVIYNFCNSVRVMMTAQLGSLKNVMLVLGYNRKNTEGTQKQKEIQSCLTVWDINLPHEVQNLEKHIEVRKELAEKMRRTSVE

[2] = species on record: Homo sapiens; assay: Selectivity ratio of Ki for JAK2 (unknown origin) to Ki for recombinant human GST-tagged LRRK2 G2019S mutant catalytic domain (970 to 2527 residues) expressed in insect cells
[3] = biological target: T1, Leucine-rich repeat serine/threonine-protein kinase 2; assay: Inhibition of LRRK2 G2019S mutant (unknown origin) by cell based assay
[4] = Clearance in rat at 0.5 to 1 mg/kg, iv; type: ADME, organism-based; conditions: in vivo
[5] = tested on: P-gp (human MDR1); assay: Efflux ratio of permeability from basolateral to apical side over apical to basolateral side in MDCK-MDR1 cells harboring human P-gp at 5 uM; type: ADME, cell-based, Canis lupus familiaris; conditions: dog
[6] = Clearance in rat at 0.5 mg/kg, iv; type: ADME, organism-based; conditions: in vivo
[7] = biological target: Serine/threonine-protein kinase 26 (Homo sapiens) (UniProt Q9P289); assay: Inhibition of MST4 (unknown origin) at 1 uM relative to control
Sequence of Serine/threonine-protein kinase 26 (Homo sapiens) (Q9P289 2-416 limits assumed): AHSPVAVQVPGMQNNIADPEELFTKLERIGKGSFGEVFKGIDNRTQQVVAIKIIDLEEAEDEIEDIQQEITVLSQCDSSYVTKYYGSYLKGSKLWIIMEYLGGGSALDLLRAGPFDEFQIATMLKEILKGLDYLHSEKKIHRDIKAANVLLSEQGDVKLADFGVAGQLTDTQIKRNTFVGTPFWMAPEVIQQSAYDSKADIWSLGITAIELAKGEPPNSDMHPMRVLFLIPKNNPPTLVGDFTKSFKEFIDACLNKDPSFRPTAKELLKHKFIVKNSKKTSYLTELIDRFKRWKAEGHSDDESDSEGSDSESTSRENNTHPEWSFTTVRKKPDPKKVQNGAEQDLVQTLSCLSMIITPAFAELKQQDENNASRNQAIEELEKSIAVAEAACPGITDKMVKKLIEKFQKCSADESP

[8] = biological target: T2, Dual specificity protein kinase TTK (Homo sapiens) (UniProt P33981); assay: Inhibition of TTK (unknown origin) at 1 uM relative to control
T2 sequence (whole entry): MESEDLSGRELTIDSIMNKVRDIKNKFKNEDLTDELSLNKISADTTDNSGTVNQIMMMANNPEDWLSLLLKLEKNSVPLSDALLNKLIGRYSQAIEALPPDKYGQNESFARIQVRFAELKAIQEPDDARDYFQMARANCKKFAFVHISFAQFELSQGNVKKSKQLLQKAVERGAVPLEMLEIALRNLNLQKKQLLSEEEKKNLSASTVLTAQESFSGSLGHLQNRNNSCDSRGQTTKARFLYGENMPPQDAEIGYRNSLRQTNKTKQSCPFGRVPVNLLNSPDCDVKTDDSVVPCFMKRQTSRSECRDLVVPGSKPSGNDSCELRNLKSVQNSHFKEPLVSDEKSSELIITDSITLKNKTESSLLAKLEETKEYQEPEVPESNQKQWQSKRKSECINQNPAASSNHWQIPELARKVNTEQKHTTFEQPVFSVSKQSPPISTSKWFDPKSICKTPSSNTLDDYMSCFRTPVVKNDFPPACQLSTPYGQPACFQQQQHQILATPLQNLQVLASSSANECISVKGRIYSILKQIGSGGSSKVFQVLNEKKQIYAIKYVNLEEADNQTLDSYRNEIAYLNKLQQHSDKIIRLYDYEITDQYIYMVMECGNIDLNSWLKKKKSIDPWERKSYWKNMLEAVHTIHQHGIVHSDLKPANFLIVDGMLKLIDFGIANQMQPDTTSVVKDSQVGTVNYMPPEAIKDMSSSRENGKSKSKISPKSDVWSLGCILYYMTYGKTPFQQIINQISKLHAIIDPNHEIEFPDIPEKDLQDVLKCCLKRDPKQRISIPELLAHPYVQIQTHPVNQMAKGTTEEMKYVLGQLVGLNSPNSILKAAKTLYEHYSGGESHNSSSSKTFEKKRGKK

[9] = biological target: TAK1/TAB1 (Homo sapiens) (UniProt Q15750+O43318); assay: Inhibition of TAK1/TAB1 (unknown origin) at 1 uM relative to control; type: protein-complex assay
[10] = Ratio of fAUC in rat brain to plasma at 0.5 mg/kg, iv; type: ADME, organism-based; conditions: brain and plasma
[11] = Oral bioavailability in rat at 1 mg/kg; type: ADME, organism-based; conditions: in vivo
[12] = Ratio of AUC in rat brain to plasma at 0.5 mg/kg, iv; type: ADME, organism-based; conditions: brain and plasma, read-out: Ratio AUC
[13] = biological target: Maternal embryonic leucine zipper kinase (Homo sapiens) (UniProt Q14680); assay: Inhibition of MELK (unknown origin) at 1 uM relative to control
Sequence of Maternal embryonic leucine zipper kinase (Homo sapiens) (Q14680 whole entry, looked up): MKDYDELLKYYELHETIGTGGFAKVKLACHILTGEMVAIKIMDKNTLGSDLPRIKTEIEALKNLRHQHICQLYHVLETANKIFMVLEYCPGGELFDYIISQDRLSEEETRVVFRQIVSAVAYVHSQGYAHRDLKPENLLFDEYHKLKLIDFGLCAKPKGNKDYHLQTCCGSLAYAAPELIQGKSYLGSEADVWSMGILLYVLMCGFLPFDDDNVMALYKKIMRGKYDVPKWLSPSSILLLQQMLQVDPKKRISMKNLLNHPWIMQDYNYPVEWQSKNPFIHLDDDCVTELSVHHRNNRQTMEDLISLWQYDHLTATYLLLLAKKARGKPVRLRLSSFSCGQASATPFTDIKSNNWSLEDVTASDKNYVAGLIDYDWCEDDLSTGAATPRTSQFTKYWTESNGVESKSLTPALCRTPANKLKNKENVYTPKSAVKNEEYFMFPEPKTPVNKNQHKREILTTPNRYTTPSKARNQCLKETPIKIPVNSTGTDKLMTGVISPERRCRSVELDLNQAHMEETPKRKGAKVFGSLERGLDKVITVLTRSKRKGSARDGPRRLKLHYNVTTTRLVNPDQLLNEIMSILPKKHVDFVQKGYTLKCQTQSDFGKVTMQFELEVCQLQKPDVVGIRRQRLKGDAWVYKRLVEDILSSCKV

Ki [1]	IC50 [3]	efflux ratio at 5 µM [5]	SMILES	other results
0.147 µM			c1cc(-c2n[nH]c3ccnc(OC4CCOCC4)c23)nc(N2CCOCC2)c1	
			Cc1[nH]nc2ccnc(NC3CCOCC3)c12	Ratio Ki [2]: 20
0.151 µM			CC(C)Nc1nccc2[nH]nc(-c3nnc(C4CC4)n3C)c12	
	0.135 µM	1.5	c1cc(-c2n[nH]c3ccnc(NC4CCOCC4)c23)cc(N2CCOCC2)n1	clearance [4]: 117 mL/min/kg
0.0012 µM	0.049 µM	23	CC(C)n1cc(-c2n[nH]c3ccnc(NC4CCOCC4)c23)nn1	
0.0031 µM	0.041 µM	3.6	c1ccc(-c2n[nH]c3ccnc(NC4CCOCC4)c23)nc1	clearance [6]: 22 mL/min/kg
0.0041 µM	0.024 µM	1.4	FC(F)(F)c1cc(-c2n[nH]c3ccnc(NC4CCOCC4)c23)ncn1	inhibition [7]: 59%; inhibition [8]: 52%; clearance [6]: 18 mL/min/kg; inhibition [9]: 51%; Kp uu [10]: 0.22; bioavailability [11]: 62%; Kp [12]: 1; Ratio Ki [2]: 1000
0.044 µM			c1cc(-c2n[nH]c3ccnc(OC4CCOCC4)c23)[nH]n1	
0.0078 µM	0.035 µM	21	CC(C)c1nc(-c2n[nH]c3ccnc(NC4CCOCC4)c23)n[nH]1	clearance [6]: 35 mL/min/kg
4.6 µM			CC(C)c1n[nH]c(-c2n[nH]c3ccnc(OC4CCOCC4)c23)n1	
0.0005 µM	0.0045 µM	10	CCc1cc(-c2n[nH]c3ccnc(NC4CCOCC4)c23)nn1C	
0.0042 µM	0.024 µM	3.4	c1cc(-c2n[nH]c3ccnc(OC4CCOCC4)c23)cc(N2CCOCC2)n1	inhibition [13]: 60%; inhibition [8]: 86%; Ratio Ki [2]: 882; clearance [4]: 69 mL/min/kg
0.021 µM	0.013 µM	80	CC(C)(O)Cn1cc(-c2n[nH]c3ccnc(OC4CCOCC4)c23)cn1	clearance [6]: 30 mL/min/kg
0.182 µM	0.426 µM	1.1	Cc1n[nH]c2ccnc(NC3CCOCC3)c12	clearance [4]: 25 mL/min/kg
0.0035 µM		4	CCc1cc(-c2n[nH]c3ccnc(NC(C)C)c23)nn1C	
0.044 µM	0.301 µM	0.9	Cc1n[nH]c2ccnc(OC3CCOCC3)c12	Ratio Ki [2]: 20; clearance [4]: 34 mL/min/kg
3.9 µM		11	CCc1cc(-c2n[nH]c3ccnc(NC4CCOCC4)c23)n(C)n1	
